The values that follow come from EP0326640B1, “(1R,5S,6S)-2-substituted thio-6 (R)-1-hydroxyethyl -1-methyl-carbapenem - carboxylic acid derivatives” (LEDERLE (JAPAN) LTD., priority 1987, dated 1989).

Values after ≈ are worked out from the molar mass of the structure shown.

For data set [1], the system named is Citrobactor freundii GN 346. Description: Antibacterial activity against clinically isolated β-lactamase (cephalosporinase) producing strains (MIC). It is filed as cell-based. Particulars: cephalosporinase producing strain, SDA, 18 to 20 hours. Put shortly: (§1)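 Growth inhibition was read on agar after 18 to 20 hours, taking the minimum inhibitory concentration as the lowest level at which organisms no longer grew. Spots of 10⁶ cells per milliliter, from overnight (18 hour) broth cultures of cephalosporinase producers, were applied to drug-containing agar.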

In data set [2] the test system is Enterobacter cloacae GN 5797. The description is as above. Type of data set: cell-based. As to conditions: GN5797, cephalosporinase producing strain, SDA, 18 to 20 hours, read-out: MIC. Put shortly: as §1
The subject of data set [3] is Enterobacter cloacae GN 7467. The data set is described as above. Type of data set: cell-based. As to conditions: GN7467; Enterobacter cloacae GN 7467; cephalosporinase producing strain, SDA, 18 to 20 hours; read-out: MIC. Put shortly:
as §1

A further data set deals with Escherichia coli GN 5482. Described as above. It is filed as cell-based. As to conditions: GN5482, cephalosporinase producing strain, SDA, 18 to 20 hours, read-out: MIC. The gist of the method:
as §1

In data set [4] the test system is Escherichia coli No. 1501. The description is as above. Type of data set: cell-based. Particulars: cephalosporinase producing strain, SDA, 18 to 20 hours, read-out: MIC. The gist of the method:
as §1

The subject of the next data set is Proteus morganii GN 5375. Described as above. As to conditions: Morganella morganii, GN5375, cephalosporinase producing strain, SDA, 18 to 20 hours, read-out: MIC. Type of data set: cell-based. The gist of the method: as §1
The next data set concerns Proteus vulgaris GN 76. Described as above. Particulars: Proteus vulgaris, GN76, Proteus vulgaris GN 76; cephalosporinase producing strain, SDA, 18 to 20 hours; read-out: MIC. It is filed as cell-based. The gist of the method: as §1
The subject of data set [5] is Providencia rettgeri GN 4430. The data set is described as above. Type of data set: cell-based. Particulars: GN4430, cephalosporinase producing strain, SDA, 18 to 20 hours, read-out: MIC. The gist of the method: as §1
Data set [6] relates to Pseudomonas aeruginosa GN 10362. The description is as above. It is filed as cell-based. Particulars: GN10362, cephalosporinase producing strain, SDA, 18 to 20 hours, read-out: MIC. The gist of the method: as §1
Data set [7] deals with Pseudomonas aeruginosa GN 918. The description is as above. Particulars: GN918; Pseudomonas aeruginosa GN 918; cephalosporinase producing strain, SDA, 18 to 20 hours; read-out: MIC. Type of data set: cell-based. Put shortly:
as §1

Data set [8] deals with Pseudomonas cepacia GN 11164. The data set is described as above. Particulars: Burkholderia cepacia, GN11164, cephalosporinase producing strain, SDA, 18 to 20 hours, read-out: MIC. Type of data set: cell-based. Put shortly: as §1
Data set [9] deals with P. aeruginosa resistant strains. Description: Sensitivity test against clinical isolates, agar plate dilution method. Type of data set: cell-based. Particulars: 54 strains of P. aeruginosa having an anti-Pseudomonas resistance. As for the experimental part:
The test procedures were based on the agar plate dilution method in accordance with the standard method of The Japanese Chemotherapy Society. The minimum inhibitory concentration (MIC) was determined in substantially the same manner as the test procedures II above using the 54 strains of P. aeruginosa having an anti-Pseudomonas resistance.

Data set [10] deals with T1, Swine Kidney Dehydropeptidase-I (DHP-I) (Sus scrofa, UniProt P22412).
T1 construct: made soluble by treatment with butanol and purified by the ammonium sulfate fraction method, thereby producing DHP-I enzyme from a 75% ammonium sulfate fraction; from tissue; host or cells: swine kidney
T1 sequence (P22412 17-384): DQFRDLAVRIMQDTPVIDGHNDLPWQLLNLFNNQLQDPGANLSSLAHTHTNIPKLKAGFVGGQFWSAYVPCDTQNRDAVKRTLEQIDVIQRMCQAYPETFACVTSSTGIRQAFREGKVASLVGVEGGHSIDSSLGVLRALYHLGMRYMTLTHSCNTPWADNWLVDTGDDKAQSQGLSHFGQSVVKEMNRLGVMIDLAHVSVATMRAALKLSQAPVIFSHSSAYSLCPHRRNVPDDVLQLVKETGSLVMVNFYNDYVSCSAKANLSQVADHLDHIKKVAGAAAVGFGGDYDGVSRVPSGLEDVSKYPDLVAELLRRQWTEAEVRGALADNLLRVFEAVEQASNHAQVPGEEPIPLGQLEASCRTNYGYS
Put plainly: Stability of test compounds against DHP-I by HPLC. Type of data set: in vitro ADME. As to conditions: 37°C, Substrate Concentration: 100 μM. The procedure:
The swine kidney (8 kg) was homogenized and the enzyme protein was allowed to precipitate. After a connective lipid was removed with acetone, the resultant material was made soluble by treatment with butanol and purified by the ammonium sulfate fraction method, thereby producing DHP-I enzyme from a 75% ammonium sulfate fraction. The DHP-I enzyme was then adjusted to give an enzyme concentration of 25 mg/10 ml (phosphate buffer, pH 7.1), and divided into 1 ml portions. The portions were frozen and stored at -40°C or less until use. Crystalline compound (20) obtained in Example 11 and amorphous compound (14) obtained in Example 5 below were used as a test compound. The test compound was adjusted in situ to give a concentration of 117 µM with a 50 mM sodium phosphate buffer solution (pH =7.1). Glycyl dehydrophenylalanine (Gl-dh-Ph) and imipenem were employed as control compounds, and they were adjusted in situ each to give a concentration of 117 µM with the same sodium phosphate buffer solution. The test compound according to the present invention and the control compounds were treated in substantially the same manner as (1) above. The incubation, however, was conducted at 37°C for 4.5 hours or for 24 hours. The degree of hydrolysis of the compounds each after the test periods was measured by the HPLC method.

Broadly, the MIC is the smallest concentration in the dilution series that meets the test's criterion for growth inhibition. In the case of `C[C@@H](O)[C@H]1C(=O)N2C(C(=O)O)=C(SCCN=CN)C[C@H]12` [Imipenem, imipenem], the MIC in data set [1] was 0.39 µg/mL (≈ 1.3 µM); in [2], 0.39 µg/mL (≈ 1.3 µM); in data set [3], 0.78 µg/mL (≈ 2.61 µM); with Escherichia coli GN 5482, 0.1 µg/mL (≈ 0.334 µM); in data set [4], 0.1 µg/mL (≈ 0.334 µM); in the data set with Proteus morganii GN 5375, 3.13 µg/mL (≈ 10.5 µM). For the same compound, the MIC was determined as 3.13 µg/mL (≈ 10.5 µM) with Proteus vulgaris GN 76; 0.39 µg/mL (≈ 1.3 µM) in data set [5]; 0.78 µg/mL (≈ 2.61 µM) in [6]; 0.78 µg/mL (≈ 2.61 µM) in data set [7]; 3.13 µg/mL (≈ 10.5 µM) in [8]. In addition, the “concentration to inhibit the growth of all the test microorganisms” value in data set [9] was determined as 12.5 µg/mL. Also, the percent of strains inhibited at 6.25 µg/mL in data set [9] (concentration of 6.25 µg/ml, read-out: test microorganisms whose growth is inhibited) is approximately 98%. In addition, the “DEGREES OF HYDROLYSIS BY DHP-I” value in data set [10] (4.5 hours) was 77.6 µM; in data set [10] (24 hours) it was “* After 24 hours at 37°C, it has been found that most or all imipenem has been decomposed and nothing remained was detected”.
Turning to `C[C@@H](O)[C@H]1C(=O)N2C(C(=O)[O-])=C(SCc3cs[n+](C)n3)[C@H](C)[C@H]12` [Amorphous Compd. (14), (1R,5S,6S)-2-[(2-methyl-1,2,3-thiadiazolium-4-yl)methyl]thio-6-[(R)-1-hydroxyethyl]-1-methyl-carbapenem-3-carboxylate], the MIC in data set [1] turned out to be 0.78 µg/mL (≈ 2.19 µM); in data set [2], 0.1 µg/mL (≈ 0.281 µM); in [3] it was 3.13 µg/mL (≈ 8.81 µM); in the data set on Escherichia coli GN 5482, 0.05 µg/mL (≈ 0.141 µM); in [4], 0.05 µg/mL (≈ 0.141 µM); in the data set with Proteus morganii GN 5375, 3.13 µg/mL (≈ 8.81 µM). The minimal inhibitory concentration (MIC) was found to be 6.25 µg/mL (≈ 17.6 µM) in the data set on Proteus vulgaris GN 76; 0.39 µg/mL (≈ 1.1 µM) in data set [5]; 0.78 µg/mL (≈ 2.19 µM) in [6]; 0.78 µg/mL (≈ 2.19 µM) in [7]; 0.39 µg/mL (≈ 1.1 µM) in data set [8].
